Data on 1 sequence can be found in US6770456B1, “Endogenous retrovirus tumor associated nucleic acids and antigens” (Ludwig Institute for Cancer Research, priority 1998, dated 2004).

pEC50: −log10 of the molar value.

This test deals with AVL3-EBV B cells. The test can be described thus: Peptide sensitization of EBV-transformed B cells to lysis by CTL 13 (51Cr release). Type of test: cell-based, human. The note with it: 51Cr-labeled cells incubated 30 min at 20° C. with peptide; effector:target 5:1; chromium release after 4 hr; read-out: half-maximal effect for sensitizing AVL3-EBV B cells to lysis by CTL clone 13. Here is the method: Sensitivity of target cells to lysis by the CTL was evaluated by a standard ^51Cr-release assay over 4 hr. Some lysis assays were performed in the presence of the following murine monoclonal antibodies: BB7.2, an IgG2b anti-HLA-A2 (from the ATCC), and OKM1, an IgG2b anti-CD11b (from the ATCC).
One of them, MLAVISCAV (SEQ ID NO:9), was contained within an open reading frame starting with an initiation codon preceeded by a canonical Kozak consensus sequence. This peptide sensitized AVL3-EBV B cells to lysis by CTL clone 13, with an half-maximal effect at 5 nM (FIG. 4). ^51Cr-labeled EBV-transformed B cells from patient AVL3 were incubated for 30 min at 20° C. with the indicated concentrations of peptide. CTL 13 were then added at an effector:target ratio of 5:1, and chromium release was measured after 4 hr.

As for MLAVISCAV, the pEC50 is 8.30.
